Results on seven molecules are retold here after PMC6926618, “Modification of Polyacrylonitrile Fibers by Coupling to Thiosemicarbazones” (Materials, 2019).

One series relates to E. coli. In words: Antibacterial test on plates (zones of inhibition). It counts as cell-based. To be noted: 20 g/L and 10 g/L on plates, Figure 11a.
Series [1] concerns S. aureus. In words: Antibacterial test on plates (zones of inhibition). Format: cell-based. The note with it: for antibacterial activity on S. aureus (zones of inhibition): 20 g/L and 10 g/L on plates, Figure 11; for Concentration (bacteriostatic effect), S. aureus: Table 7, Figure 12.
Series [2] is described as follows: Potentiometric titration, stability constant of complex with Cu^2+. Format: physicochemical. The note with it: 25 °C, water with 20% DMSO, KNO3. The protocol:
(§1) The stability constant of the complex was tested using a Metrohm 877 Titrino plus automatic potentiometric titrator (Metrohm, Herisau, Switzerland). The titration temperature was maintained at 25 ± 0.5 °C with pH range of 2–11. The titration solution was water solution with 20% DMSO, and the ionic strength I = […] KNO3 (aq). The initial concentration was [L] = 0.005–0.0001 mol·L^−1, [HNO3] = 0.002 mol·L^−1, [KNO3] = 0.10 mol·L^−1, and [M] = 0.0001 mol·L^−1. The total volume was 25 mL, the titration volume was 0.004 mL·D^−1, and the response time was at least 1 min. The titration was triplicate and the titration data were fitted using Hyperquad 2013 software, where the ion product of H2O was pKw = 13.85 [18]. The distribution curve of species with pH was plotted using HySS 2009 software (Version 2009, Hyperquad Co. Ltd., London, UK). Three metal ions, Cu^2+, Zn^2+, and Mn^2+, were chosen as model ions in this work. The stability constants of the thiosemicarbazone compounds forming complexes with the above three metal ions and the species distribution under different pH conditions were investigated in detail.

A short description of series [3]: Potentiometric titration, stability constant of complex with Zn^2+. It counts as physicochemical. To be noted: 25 °C, water with 20% DMSO, KNO3. The protocol: as §1
The next series concerns the target tyrosinase. In words: Tyrosinase activity analysis (L-DOPA oxidation, spectrophotometry at 475 nm). Format: biochemical. The protocol: Tyrosinase activity was determined by spectrophotometry, as 3,4-dihydroxyphenylalanine (L-DOPA, Sigma) oxidation activity, with a modification of a reported method. In brief, the tyrosinase solution (50 µL) was gently added to 450 µL of phosphate buffer at a concentration of 0.05 M containing 50 µM samples. The pH of the solution was maintained at 6.8. Then, the mixture was incubated at 30 °C for 10 min and 500 µL of 5 mM L-DOPA solution was added. […] This intensity of the peaks was recorded based on time. The tyrosinase activity was analyzed from the initial rate. The buffer containing 1% DMSO was used as a control sample. The inhibition rate of the test solution against tyrosinase was calculated using the corresponding negative control as a reference, and an approximation of the half-inhibitory concentration (IC50) was estimated based on the concentration-enzyme inhibition rate curve.

Series [4] is described as follows: Potentiometric titration, stability constant of complex with Mn^2+. Format: physicochemical. To be noted: 25 °C, water with 20% DMSO, KNO3. The protocol: as §1
The test system of another series is B. subtilis. In words: Antibacterial test on plates (zones of inhibition). The note with it: 20 g/L and 10 g/L on plates, Figure 11. Format: cell-based.
The next series deals with A549 cells. Briefly: MTT cytotoxicity assay. Format: cell-based. The note with it: for Concentration of Compounds When 80% of Cells Survive: 48 h co-culture. The protocol:
The cytotoxic effect of compounds was determined by using in vitro colorimetric MTT assay. The A549 cells were seeded into 96-well microtiter tissue culture plates with a final volume of 100 μL. After attachment for 24 h, the cells were treated with different concentrations (0.1, 1, 10, 50, and 100 μM) of thiosemicarbazone compounds in the culture medium. Eight replicate wells per concentration were used and all experiments were repeated in triplicate. The solvent control (DMSO) was also assayed in parallel. The cells were incubated for 24 h and 48 h with compounds. Then, MTT dye was added 4 h before the completion of the incubation periods. The resulting formazan crystals were separated from the medium and then dissolved in 100 μL DMSO. The absorbance at 490 nm was used to quantify the plates using ELx808 Absorbance Microplate Reader (Bio-Tek, Winooski, USA).
In general terms: Tetrazolium dyes change colour on reduction, which living cells bring about.

The subject of series [5] is S. aureus. In words: Antibacterial test GB/T20944.3-2008, colony count, inhibition rate. It counts as cell-based. To be noted: Staphylococcus aureus, DY6 at 1.0 µM vs control sample, read-out: inhibition effect (colony-forming bacterial units). The protocol: Antibacterial performance against bacteria (E. coli, S. aureus, and B. subtilis) was determined according to GB/T20944.3-2008. The inoculation suspension of bacteria was prepared and the inoculation loop was used to conduct the bacterial inoculation on the agar board for 18–24 h at 37 ± 1 °C. The sample was dipped into the conical flask filled with experimental bacteria solution with a certain concentration. After that, the oscillation culture is conducted to the samples for specified time, and 1 mL of solution was taken, diluted and distributed onto an agar plate. All plates were incubated at 37 °C for 24 h and the colonies formed were counted. […] Qt is the bacteria-colony number of viable bacteria in the plate after antibacterial treatment or grafted PAN fibers.
Figure 13 Antibacterial effect against S. aureus: (a) control sample; (b) after treatment with DY6 ay the concentration of 1.0 µM; (c) original PAN fibers; and (d) grafted DY6–PAN fibers.

[6] abbreviates: L-DOPA substrate, pH 6.8, 30 °C, approximation from concentration-inhibition curve, read-out: IC50 (semi-inhibitory concentration of tyrosinase).

Values joined by “and” are separate entries in the source; they are usually repeats but may differ in a detail not shown here. Equal entries are not always repeated. Where two headings read alike, the source gives them in different places.

As for `Cc1ccc(O)c(/C=N/NC(N)=S)c1` [DY1], in the series with E. coli, the “antibacterial effect on E. coli” value is reported as “do not have an antibacterial effect”. In addition, in the series on S. aureus [1], the “antibacterial activity on S. aureus (zones of inhibition)” value is on record as “good antibacterial activities” and the “Concentration (bacteriostatic effect), S. aureus” value was 0.02 µM. In addition, the “logKCu^2+, n = 1” value in series [2] worked out at 19.15 ± 0.11 M^−1. Also, the “logKZn^2+, n = 1” value in series [3] was 13.13 ± 0.21 M^−1. The IC50 at tyrosinase (setting [6]) was 1880 nM. Further, the “logKMn^2+, n = 1” value in series [4] came out at 13.67 ± 0.31 M^−1. In addition, the “antibacterial activity on B. subtilis (zones of inhibition)” value with B. subtilis was “good antibacterial activities”. Also, in the series with A549 cells, the “effective concentration (A549 cell survival rate maintained above 80%)” value is listed as “up to 100 μM” and the “Concentration of Compounds When 80% of Cells Survive” value was less than 100 µM.
Consider `NC(=S)N/N=C/c1cc(O)ccc1O` [DY2], for which, in series [2], the “logKCu^2+, n = 1” value was 18.83 ± 0.14 M^−1. In addition, the “logKZn^2+, n = 1” value in series [3] is given as 13.53 ± 0.11 M^−1. For the same molecule, the “logKMn^2+, n = 1” value in series [4] is listed as 14.27 ± 0.17 M^−1.
In the case of `NC(=S)N/N=C/c1cc([N+](=O)[O-])ccc1O` [DY3], the “logKCu^2+, n = 1” value in [2] is on record as 19.10 ± 0.15 M^−1. Further, the “logKZn^2+, n = 1” value in [3] amounted to 13.69 ± 0.12 M^−1. The IC50 on tyrosinase (setting [6]) turned out to be 9880 nM. The “logKMn^2+, n = 1” value in series [4] worked out at 14.48 ± 0.11 M^−1. Further, in the series with A549 cells, the “effective concentration (A549 cell survival rate maintained above 80%)” value is 50 µM and the “Concentration of Compounds When 80% of Cells Survive” value is less than 50 µM.
In general, inhibition refers to the relative decrease from the control value, in per cent. Consider `CCN(CC)c1ccc(/C=N/NC(N)=S)c(O)c1` [DY6], for which the “antibacterial effect on E. coli” value in the series with E. coli was “do not have an antibacterial effect”. In the series with S. aureus [1], the “antibacterial activity on S. aureus (zones of inhibition)” value is recorded as “good antibacterial activities” and the “Concentration (bacteriostatic effect), S. aureus” value was 0.02 µM. The “logKCu^2+, n = 1” value in series [2] is 20.15 M^−1 and 20.15 ± 0.14 M^−1. Also, in series [3], the “logKZn^2+, n = 1” value is 14.07 M^−1 and 14.07 ± 0.37 M^−1. Moreover, the IC50 at tyrosinase (L-DOPA method, blank control 1% DMSO, read-out: IC50 (semi-inhibitory curve, Figure 3)) amounted to 600 nM. For the same molecule, the IC50 at tyrosinase (setting [6]) worked out at 600 nM. In series [4], the “logKMn^2+, n = 1” value was 14.37 M^−1 and 14.37 ± 0.30 M^−1. For the same molecule, the “antibacterial activity on B. subtilis (zones of inhibition)” value in the series on B. subtilis was “good antibacterial activities”. Besides, the inhibition at 1 µM in the series with S. aureus [5] was 88.6%. Further, in the series with A549 cells, the “effective concentration (A549 cell survival rate maintained above 80%)” value is “up to 100 μM” and the “Concentration of Compounds When 80% of Cells Survive” value was less than 100 µM.
Consider `COc1ccc(/C=N/NC(N)=S)c(O)c1` [DY4], for which, in the series on E. coli, the “antibacterial effect on E. coli” value is reported as “do not have an antibacterial effect”. The “antibacterial activity on S. aureus (zones of inhibition)” value with S. aureus [1] is “good antibacterial activities”. Besides, the “logKCu^2+, n = 1” value in series [2] was 18.95 ± 0.10 M^−1. Further, the “logKZn^2+, n = 1” value in series [3] is given as 13.56 ± 0.17 M^−1. Further, at tyrosinase (setting [6]), the IC50 is 1120 nM. In addition, the “logKMn^2+, n = 1” value in [4] is given as 14.01 ± 0.08 M^−1. In the series with B. subtilis, the “antibacterial activity on B. subtilis (zones of inhibition)” value is recorded as “good antibacterial activities”. In addition, in the series with A549 cells, the “effective concentration (A549 cell survival rate maintained above 80%)” value is listed as “up to 100 μM” and the “Concentration of Compounds When 80% of Cells Survive” value was less than 100 µM.
Regarding `NC(=S)N/N=C/c1cc(Cl)ccc1O` [DY5], the “antibacterial effect on E. coli” value in the series with E. coli is given as “do not have an antibacterial effect”. Further, the “antibacterial activity on S. aureus (zones of inhibition)” value in the series on S. aureus [1] was “good antibacterial activities”. The “logKCu^2+, n = 1” value in [2] was 19.43 ± 0.22 M^−1. The “logKZn^2+, n = 1” value in [3] amounted to 12.51 ± 0.20 M^−1. Further, the IC50 on tyrosinase (setting [6]) amounted to 1680 nM. Further, the “logKMn^2+, n = 1” value in series [4] worked out at 13.65 ± 0.16 M^−1. Also, the “antibacterial activity on B. subtilis (zones of inhibition)” value in the series with B. subtilis is on record as “good antibacterial activities”. For the same molecule, in the series on A549 cells, the “effective concentration (A549 cell survival rate maintained above 80%)” value was 50 µM and the “Concentration of Compounds When 80% of Cells Survive” value was less than 50 µM.
Consider `NC(=S)N/N=C/c1ccc2c(c1)OCCO2` [DY7], for which the IC50 on tyrosinase (setting [6]) stood at 41200 nM. In the series with A549 cells, the “effective concentration (A549 cell survival rate maintained above 80%)” value came out at 50 µM and the “Concentration of Compounds When 80% of Cells Survive” value was less than 50 µM.
